Positions count from the first letter of the chain named. pIC50: −log10 of the molar value.
Key:
Test in all cases: Picrotoxin inhibition of GABA responses, two electrode voltage clamp in Xenopus oocytes
Assay type in all cases: cell-based
[1] = target: T1, 4M2 mutant Drosophila RDL receptor (N-7′H, T6′M, A20′S and A21′Q) (Drosophila melanogaster, UniProt P25123, A319S/A320Q/N292H/T305M); settings: 4M2 RDL
T1 construct: expressed in transfected cells; host or cells: Xenopus laevis oocytes injected with cRNA
T1 sequence (P25123 45-606 N292H/T305M/A319S/A320Q): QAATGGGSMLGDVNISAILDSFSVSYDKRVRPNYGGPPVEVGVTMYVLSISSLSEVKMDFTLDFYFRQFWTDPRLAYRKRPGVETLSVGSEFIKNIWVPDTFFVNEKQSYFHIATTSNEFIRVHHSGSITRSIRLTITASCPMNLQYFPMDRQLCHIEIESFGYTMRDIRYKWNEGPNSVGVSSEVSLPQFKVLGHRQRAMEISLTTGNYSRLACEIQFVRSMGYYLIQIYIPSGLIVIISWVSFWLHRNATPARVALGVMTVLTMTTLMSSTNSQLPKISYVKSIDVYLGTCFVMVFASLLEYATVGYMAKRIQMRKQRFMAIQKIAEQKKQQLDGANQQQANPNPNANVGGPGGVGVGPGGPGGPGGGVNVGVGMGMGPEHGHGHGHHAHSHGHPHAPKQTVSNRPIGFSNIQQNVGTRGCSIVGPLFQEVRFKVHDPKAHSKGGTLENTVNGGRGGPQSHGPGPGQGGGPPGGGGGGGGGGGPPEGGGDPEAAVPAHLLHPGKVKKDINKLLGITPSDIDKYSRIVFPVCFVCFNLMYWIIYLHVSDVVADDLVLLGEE
Experimental: (§1) X. laevis oocyte-positive females were purchased from NASCO (Fort Atkinson, Wisconsin, USA) and maintained according to standard methods. Harvested stage V-VI Xenopus oocytes were washed in four changes of ND96 (96 mM NaCl, 2 mM KCl, 1 mM MgCl2, 1 mM CaCl2, 5 mM HEPES, pH 7.5), de-folliculated in 1.5 mg ml^−1 collagenase Type 1A for approximately 2 h, washed again in four changes of ND96 and stored in ND96 containing 2.5 mM sodium pyruvate, 0.7 mM theophylline and […].
(§2) Drosophila RDL subunit cDNA (kindly gifted from N.Millar) was subcloned into pGEMHE for oocyte expression as previously described ([McGonigle and Lummis, 2010], [Millar et al., 1994]). Site directed mutagenesis was performed with the QuikChange mutagenesis kit (Agilent, La Jolla, CA). cRNA was transcribed in vitro from linearised pGEMHE cDNA template using the mMessage mMachine T7 Transcription kit (Ambion, Austin, Texas, USA). Stage V and VI oocytes were injected with 5 ng cRNA, incubated at 18 °C, and currents recorded 18–24 h post-injection.
(§3) Xenopus oocytes were clamped at −60 mV using an OC-725 amplifier (Warner Instruments, Connecticut, USA), Digidata 1322A and the Strathclyde Electrophysiology Software Package (Department of Physiology and Pharmacology, University of Strathclyde, UK), or using the Roboocyte (MultiChannel Systems). Currents were recorded at 5 kHz and filtered at a frequency of 1 kHz. Micro-electrodes were fabricated from borosilicate glass (GC120TF-10, Harvard Apparatus, Edenbridge, Kent, UK) using a one stage horizontal pull (P-87, Sutter Instrument Company, California, USA) and filled with 3 M KCl. Pipette resistances ranged from 1.0 to 2.0 MΩ. Oocytes were perfused with ND96 at a constant rate of 12 ml min^−1. Drug application was via a simple gravity fed system calibrated to run at the same rate.
(§4) Analysis and curve fitting was performed using Prism v5 (GraphPad Software, San Diego, California, USA). Concentration-response data for each oocyte was normalised to the maximum current for that oocyte. The mean and S.E.M. for a series of oocytes were fitted to the four parameter logistic equation in Prism.

[2] = target: T2, wild type Drosophila RDL receptor (Drosophila melanogaster, UniProt P25123)
T2 construct: expressed in transfected cells; host or cells: Xenopus laevis oocytes injected with cRNA
T2 sequence (P25123 45-606): T1 sequence (P25123 45-606 N292H/T305M/A319S/A320Q) with H248N, M261T, S275A, Q276A
Experimental: as §1, §2, §3, §4

[3] = target: T3, T6′M mutant Drosophila RDL receptor (Drosophila melanogaster, UniProt P25123, T305M)
T3 construct: expressed in transfected cells; host or cells: Xenopus laevis oocytes injected with cRNA
T3 sequence (P25123 45-606 T305M): T1 sequence (P25123 45-606 N292H/T305M/A319S/A320Q) with H248N, S275A, Q276A
Experimental: as §1, §2, §3, §4

[4] = inhibition of GABA responses, read-out: Picrotoxin pIC50 (converted)

picrotoxin
Sensitivity to PTX ([1]; PTX up to 100 μM): insensitive
IC50 [1, 4]: > 100 µM
pIC50 [2]: 6.74
Picrotoxin pIC50 [2]: 6.75 ± 0.22
Sensitivity to PTX ([3]; PTX up to 100 μM): insensitive
IC50 [3, 4]: > 100 µM
